Where only a bound is given, the exact number is not on record here.

The test deals with T1, human HSD1 (recombinant HSD1) (Homo sapiens, UniProt P28845).
T1 construct: made in house
T1 sequence (P28845 whole entry): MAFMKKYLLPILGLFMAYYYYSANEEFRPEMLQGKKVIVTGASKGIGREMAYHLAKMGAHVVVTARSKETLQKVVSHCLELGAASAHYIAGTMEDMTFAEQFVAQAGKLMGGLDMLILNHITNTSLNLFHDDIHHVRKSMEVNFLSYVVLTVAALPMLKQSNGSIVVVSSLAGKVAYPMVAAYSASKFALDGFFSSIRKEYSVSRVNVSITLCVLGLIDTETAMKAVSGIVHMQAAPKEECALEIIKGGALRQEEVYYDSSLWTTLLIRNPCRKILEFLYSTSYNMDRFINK
As to the kind of experiment: In vitro HSD1 activity inhibitory action, SPA of cortisone to cortisol conversion. It is filed as biochemical. The note with it: recombinant human HSD1 0.1 μg/ml, 500 μM NADPH, 16 nM 3H cortisone, room temperature 90 min, read-out: hHSD1 IC50. Here is the method: In Vitro HSD1 (Hydroxysteroid Dehydrogenase 1) Activity Inhibitory Action
The HSD1 inhibitory activity was examined by quantitative determination by an SPA (scintillation proximity assay) system of the suppressive action on the conversion from cortisone to cortisol using human HSD1 (hereinafter recombinant HSD1) expressed using a baculo-virus system as an enzyme source. For the reaction, a reagent was added to a 96 well plate (96 well Opti-plates™-96 (Packard)) to the following final concentration and a volume of 100 μl was reacted at room temperature for 90 min. The reaction solution used was 0.1 μg/ml recombinant HSD1, 500 μM NADPH, 16 nM ^3H cortisone (Amersham Biosciences, 1.78 Tbq/mol) dissolved in 0.1% BSA (Sigma)-containing PBS and the test drug was 2 μl of a compound solution (dissolved in DMSO). After 90 min, the reaction was stopped by adding PBS (40 μl, containing 0.1% BSA (Sigma)) containing 0.08 μg of anti-cortisol mouse monoclonal antibody (East Coast Biologics), 365 μg SPA PVT mouse antibody-binding beads (Amersham Biosciences) and 175 μM carbenoxolone (Sigma) to the reaction solution. After the completion of the reaction, the plate was incubated overnight at room temperature and the radioactivity was measured by Topcount (Packard). For control, the value (0% inhibition) of the well containing 2 μl of DMSO instead of the test drug was used, and for positive control, the value (100% inhibition) of the well containing carbenoxolone instead of the test drug at the final concentration of 50 μM was used. The inhibition (%) of the test drug was calculated by ((value of control−value of test drug)/(value of control−value of positive control))×100 (%). The IC50 value was analyzed using a computer-based curve fitting soft.
Regarding `CNC(=O)c1ccc(-c2nnc(C3(c4ccccc4)CC3)n2C)c(Cl)c1` [Ex. 1-75], the IC50 (in general, the point on the concentration scale where inhibition reaches its midpoint) is under 10 nM.
Consider `COc1ccc(-c2nnc(C3(c4ccccc4)CC3)n2C)c(Cl)c1` [Ex. 1-76], for which the IC50 is under 10 nM.
Under `CN(C)C(=O)c1ccc(-c2nnc(C3(c4ccccc4)CC3)n2C)c(Cl)c1` [Ex. 1-77] stands 10 to 1000 nM; under `Cn1c(-c2ccc(C(=O)NCCO)cc2Cl)nnc1C1(c2ccccc2)CC1` [Ex. 1-78], 10 to 1000 nM; under `CC(C)NC(=O)c1ccc(-c2nnc(C3(c4ccccc4)CC3)n2C)c(Cl)c1` [Ex. 1-79], 10 to 1000 nM.
As for `Cn1c(-c2ccc(C(=O)N3CCCCC3)cc2Cl)nnc1C1(c2ccccc2)CC1` [Ex. 1-80], the figure is 10 to 1000 nM.
`Cn1c(-c2ccc(C(=O)N3CCC(O)CC3)cc2Cl)nnc1C1(c2ccccc2)CC1` [Ex. 1-81]: the IC50 is 10 to 1000 nM.
`Cn1c(-c2ccc(C(=O)NCC(N)=O)cc2Cl)nnc1C1(c2ccccc2)CC1` [Ex. 1-82]: the concentration for half-maximal inhibition (IC50) is under 10 nM.
Take `Cn1c(-c2ccc(C(=O)NCC(F)(F)F)cc2Cl)nnc1C1(c2ccccc2)CC1` [Ex. 1-83]: the IC50 is 10 to 1000 nM.
Regarding `CC(=O)NCCNC(=O)c1ccc(-c2nnc(C3(c4ccccc4)CC3)n2C)c(Cl)c1` [Ex. 1-84], the IC50 was 10 to 1000 nM.
Turning to `COCCNC(=O)c1ccc(-c2nnc(C3(c4ccccc4)CC3)n2C)c(Cl)c1` [Ex. 1-85], the half-inhibitory concentration (IC50) fell in the range of 10 to 1000 nM.
As for `CN(C)CCNC(=O)c1ccc(-c2nnc(C3(c4ccccc4)CC3)n2C)c(Cl)c1` [Ex. 1-87], the figure is 10 to 1000 nM; as for `Cn1c(-c2ccc(C(=O)NCCN3CCOCC3)cc2Cl)nnc1C1(c2ccccc2)CC1` [Ex. 1-88], 10 to 1000 nM; as for `CN(C)c1ccc(-c2nnc(C3(c4ccccc4)CC3)n2C)c(Cl)c1` [Ex. 1-89], under 10 nM.
As to `Cn1c(-c2ccc(N3CCOCC3)cc2Cl)nnc1C1(c2ccccc2)CC1` [Ex. 1-90], the IC50 is under 10 nM.
As for `COc1cc(Cl)ccc1-c1nnc(C2(c3ccccc3)CC2)n1C` [Ex. 1-91], the figure is under 10 nM; as for `Cn1c(-c2ccc(F)cc2Cl)nnc1C1(c2ccccc2)CC1` [Ex. 1-92], under 10 nM.
As for `Cn1c(-c2ccc(Cl)cc2[N+](=O)[O-])nnc1C1(c2ccccc2)CC1` [Ex. 1-93], the figure is under 10 nM; as for `Cn1c(-c2ccc(Cl)cc2N)nnc1C1(c2ccccc2)CC1` [Ex. 1-94], 10 to 1000 nM.
As for `Cn1c(-c2ccc(Cl)cc2F)nnc1C1(c2ccccc2)CC1` [Ex. 1-95], the figure is under 10 nM; as for `Cn1c(-c2ccncc2Cl)nnc1C1(c2ccccc2)CC1` [Ex. 1-96], under 10 nM; as for `Cn1c(-c2ccc(Cl)nc2Cl)nnc1C1(c2ccccc2)CC1` [Ex. 1-97], 10 to 1000 nM.
Take `Cn1c(-c2ccccn2)nnc1C1(c2ccccc2)CC1` [Ex. 1-98]: the IC50 lay within 10 to 1000 nM.
Under `Cn1c(C2CCN(Cc3c(Cl)cccc3Cl)CC2)nnc1C1(c2ccccc2)CC1` [Ex. 1-99] stands 10 to 1000 nM; under `Cn1c(-c2ccc(Br)cc2Cl)nnc1C1(c2ccccc2)CC1` [Ex. 1-100], under 10 nM.
As for `Cn1c(-c2ccccc2Cl)nnc1C1(c2ccccc2)CC1` [Ex. 1-101], the figure is under 10 nM; as for `Cn1c(-c2ccc(C(C)(O)C(F)(F)F)cc2Cl)nnc1C1(c2ccccc2)CC1` (stereo not shown) [Ex. 1-102], under 10 nM.
As for `Cn1c(C2CCCCC2)nnc1C1(c2ccccc2)CC1` [Ex. 1-103], the figure is under 10 nM.
On to `COC(=O)[C@H]1CC[C@H](c2nnc(C3(c4ccccc4)CC3)n2C)CC1` [Ex. 1-104], for which the IC50 lay within 10 to 1000 nM.
As for `Cn1c(C2(c3ccccc3)CC2)nnc1[C@H]1CC[C@H](CO)CC1` [Ex. 1-105], the figure is under 10 nM; as for `CC(C)n1c(-c2ccc(Cl)cc2)nnc1C1(c2ccc(F)cc2)CC1` [Ex. 1-106], under 10 nM.
With `Cn1c(-c2ccc(Cl)cc2Cl)nnc1C1(c2ccc(F)cc2)CC1` [Ex. 1-107], the IC50 was under 10 nM.
Take `Cn1c(-c2ccc(N3CCC(CO)CC3)cc2Cl)nnc1C1(c2ccccc2)CC1` [Ex. 1-108]: the IC50 is under 10 nM.
Regarding `Cn1c(-c2ccc(N3CCC(C(N)=O)CC3)cc2Cl)nnc1C1(c2ccccc2)CC1` [Ex. 1-109], the IC50 is under 10 nM.
Under `COCCNC(=O)C1CCN(c2ccc(-c3nnc(C4(c5ccccc5)CC4)n3C)c(Cl)c2)CC1` [Ex. 1-110] stands under 10 nM.
Under `Cn1c(C2(c3ccccc3)CC2)nnc1[C@H]1CC[C@H](C(=O)O)CC1` [Ex. 1-111] stands 10 to 1000 nM; under `Cn1c(C2(c3ccccc3)CC2)nnc1[C@H]1CC[C@H](C(N)=O)CC1` [Ex. 1-112], under 10 nM; under `Cn1c(-c2ccc(N3CCC(C(=O)N4CCCCC4)CC3)cc2Cl)nnc1C1(c2ccccc2)CC1` [Ex. 1-113], under 10 nM.
Under `Cn1c(-c2ccc(N3CCC(C(=O)N4CCOCC4)CC3)cc2Cl)nnc1C1(c2ccccc2)CC1` [Ex. 1-114] stands under 10 nM; under `CN(C)C(=O)C1CCN(c2ccc(-c3nnc(C4(c5ccccc5)CC4)n3C)c(Cl)c2)CC1` [Ex. 1-115], under 10 nM; under `Cn1c(-c2ccc(N3CCC(C(=O)NCC(F)(F)F)CC3)cc2Cl)nnc1C1(c2ccccc2)CC1` [Ex. 1-116], under 10 nM.
With `CONC(=O)Nc1ccc(-c2nnc(C3(c4ccccc4)CC3)n2C)c(Cl)c1` [Ex. 1-117], the IC50 was under 10 nM.
Under `Cn1c(-c2ccc(N3CCOC3=O)cc2Cl)nnc1C1(c2ccc(F)cc2)CC1` [Ex. 1-118] stands under 10 nM; under `Cn1c(-c2ccc(OCCO)cc2Cl)nnc1C1(c2ccccc2)CC1` [Ex. 1-119], under 10 nM; under `Cn1c(-c2ccc(NCCO)cc2Cl)nnc1C1(c2ccc(F)cc2)CC1` [Ex. 1-120], under 10 nM.
As for `Cn1c(C2(c3ccccc3)CC2)nnc1C1(c2ccccc2)CC1` [Ex. 1-121], the figure is under 10 nM; as for `Cn1c(-c2cc(Cl)ccc2Cl)nnc1C1(c2ccc(F)cc2)CC1` [Ex. 1-122], under 10 nM.
As for `Cn1c(-c2ccc(Cl)cc2Cl)nnc1C1(c2ccc(F)cc2)CCCC1` [Ex. 1-123], the figure is under 10 nM; as for `COc1cc(C(=O)O)ccc1-c1nnc(C2(c3ccccc3)CC2)n1C` [Ex. 1-124], 10 to 1000 nM; as for `COc1cc(C(N)=O)ccc1-c1nnc(C2(c3ccccc3)CC2)n1C` [Ex. 1-125], under 10 nM.
Regarding `Cn1c(-c2ccc(C(=O)O)cc2Cl)nnc1C1(c2ccc(F)cc2)CC1` [Ex. 1-126], the IC50 was in the range of 10 to 1000 nM.
As for `Cn1c(-c2ccc(C(N)=O)cc2Cl)nnc1C1(c2ccc(F)cc2)CC1` [Ex. 1-127], the figure is under 10 nM; as for `Cn1c(-c2ccc(OCC(F)(F)F)cc2Cl)nnc1C1(c2ccccc2)CC1` [Ex. 1-129], under 10 nM.
Regarding `Cn1c(-c2ccc(OCCN)cc2Cl)nnc1C1(c2ccccc2)CC1` [Ex. 1-130], the 50% inhibitory concentration (IC50) was in the range of 10 to 1000 nM.
Under `Cn1c(-c2ccc(N3CCC(O)C3)cc2Cl)nnc1C1(c2ccccc2)CC1` (stereo not shown) [Ex. 1-131] stands under 10 nM.
As to `CC(C)n1c(-c2ccc(C(N)=O)cc2)nnc1C1(c2ccccc2)CC1` [Ex. 1-132], the IC50 was under 10 nM.
With `Cn1c(-c2ccccc2Cl)nnc1C1(c2ccc(F)cc2)CC1` [Ex. 1-134], the IC50 was under 10 nM.
Under `CN(O)C(=O)Nc1ccc(-c2nnc(C3(c4ccccc4)CC3)n2C)c(Cl)c1` [Ex. 1-137] stands under 10 nM; under `Cn1c(-c2ccc(C(N)=O)cc2Cl)nnc1C1(c2cccs2)CC1` [Ex. 1-144], under 10 nM.
As for `CC(C)n1c(-c2ccc(C(N)=O)cc2)nnc1C1(c2ccc(F)cc2)CC1` [Ex. 1-145], the figure is under 10 nM; as for `CC(C)n1c(-c2ccc(N3CCOC3=O)cc2)nnc1C1(c2ccc(F)cc2)CC1` [Ex. 1-149], under 10 nM.
For `COC(=O)Nc1ccc(Cl)c(-c2nnc(C3(c4ccc(F)cc4)CC3)n2C)c1` [Ex. 1-150], the IC50 was under 10 nM.
Under `CONC(=O)Nc1ccc(-c2nnc(C3(c4ccc(F)cc4)CC3)n2C)c(Cl)c1` [Ex. 1-152] stands under 10 nM; under `CONC(=O)Nc1ccc(-c2nnc(C3(c4ccc(F)cc4)CC3)n2C(C)C)cc1` [Ex. 1-153], under 10 nM; under `CC(C)n1c(-c2cccc(N3CCOC3=O)c2)nnc1C1(c2ccc(F)cc2)CC1` [Ex. 1-154], under 10 nM.
As for `CCn1c(-c2ccc(C(N)=O)cc2Cl)nnc1C1(c2ccccc2)CC1` [Ex. 1-158], the figure is under 10 nM; as for `CCn1c(-c2ccc(C(N)=O)cc2Cl)nnc1C1(c2ccc(F)cc2)CC1` [Ex. 1-159], under 10 nM; as for `CC(C)n1c(-c2cccc(C(N)=O)c2)nnc1C1(c2ccccc2)CC1` [Ex. 1-160], under 10 nM.
Take `CC(C)n1c(-c2cccc(C(N)=O)c2)nnc1C1(c2ccc(F)cc2)CC1` [Ex. 1-161]: the half-maximal inhibitory concentration (IC50) was under 10 nM.
For the compound `Cn1c(N2CCC(c3ccccc3)CC2)nnc1C1(c2ccccc2)CC1` [Ex. 2-1, 1-[4-methyl-5-(1-phenylcyclopropyl)-4H-[1,2,4]triazol-3-yl]-4-phenylpiperidine], the IC50 is under 10 nM.
